Assay results taken from the supplement of paper PMC10307832.

How the values were obtained:
Experiment in all cases: relative viability (nuclei count vs DMSO), 5 days (fraction); higher = more cells survive
Afatinib + Bortezomib = compound: CN(C)C/C=C/C(=O)Nc1cc2c(Nc3ccc(F)c(Cl)c3)ncnc2cc1O[C@H]1CCOC1 [Afatinib] + CC(C)C[C@H](NC(=O)[C@H](Cc1ccccc1)NC(=O)c1cnccn1)B(O)O [Bortezomib] (partner 0.002 µM)
In short: (§1)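 The day after seeding in 1536-well plates, lung cancer cell lines were treated by pin tool with a single drug, or with a fixed anchor-drug dose together with five library-drug doses (not always all listed) in √10 steps. After 5 days, a combined fix-and-stain solution (final 0.05% Triton X-100, 1% formaldehyde, 1 ug/ml Hoechst) was added. Nuclei counted on 4× images gave relative viability as treated counts over vehicle counts, reported as the median of duplicate plates.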

Afatinib + Navitoclax = compound: CN(C)C/C=C/C(=O)Nc1cc2c(Nc3ccc(F)c(Cl)c3)ncnc2cc1O[C@H]1CCOC1 [Afatinib] + CC1(C)CCC(c2ccc(Cl)cc2)=C(CN2CCN(c3ccc(C(=O)NS(=O)(=O)c4ccc(N[C@H](CCN5CCOCC5)CSc5ccccc5)c(S(=O)(=O)C(F)(F)F)c4)cc3)CC2)C1 [Navitoclax] (partner 0.5 µM)
In short: as §1

Afatinib + Dasatinib = compound: CN(C)C/C=C/C(=O)Nc1cc2c(Nc3ccc(F)c(Cl)c3)ncnc2cc1O[C@H]1CCOC1 [Afatinib] + Cc1nc(Nc2ncc(C(=O)Nc3c(C)cccc3Cl)s2)cc(N2CCN(CCO)CC2)n1 [Dasatinib] (partner 0.075 µM)
In short: as §1

Afatinib + Luminespib = compound: CN(C)C/C=C/C(=O)Nc1cc2c(Nc3ccc(F)c(Cl)c3)ncnc2cc1O[C@H]1CCOC1 [Afatinib] + CCNC(=O)c1noc(-c2cc(C(C)C)c(O)cc2O)c1-c1ccc(CN2CCOCC2)cc1 [Luminespib] (partner 0.01 µM)
In short: as §1

Cell Line	relative viability (Afatinib + Bortezomib; first compound 0.005 µM)	relative viability (Afatinib + Bortezomib; first compound 0.01581 µM)	relative viability (Afatinib + Bortezomib; first compound 0.05 µM)	relative viability (Afatinib + Bortezomib; first compound 0.1581 µM)	relative viability (Afatinib + Bortezomib; first compound 0.5 µM)	relative viability (Afatinib + Navitoclax; first compound 0.005 µM)	relative viability (Afatinib + Navitoclax; first compound 0.01581 µM)	relative viability (Afatinib + Navitoclax; first compound 0.05 µM)	relative viability (Afatinib + Navitoclax; first compound 0.1581 µM)	relative viability (Afatinib + Navitoclax; first compound 0.5 µM)	relative viability (Afatinib + Dasatinib; first compound 0.005 µM)	relative viability (Afatinib + Dasatinib; first compound 0.01581 µM)	relative viability (Afatinib + Dasatinib; first compound 0.05 µM)	relative viability (Afatinib + Dasatinib; first compound 0.1581 µM)	relative viability (Afatinib + Dasatinib; first compound 0.5 µM)	relative viability (Afatinib + Luminespib; first compound 0.005 µM)	relative viability (Afatinib + Luminespib; first compound 0.01581 µM)	relative viability (Afatinib + Luminespib; first compound 0.05 µM)	relative viability (Afatinib + Luminespib; first compound 0.1581 µM)	relative viability (Afatinib + Luminespib; first compound 0.5 µM)
LOU-NH91	0.465	0.416	0.48	0.519	0.502	0.402	0.39	0.441	0.348	0.402	0.399	0.421	0.486	0.424	0.4	0.319	0.295	0.325	0.326	0.311
LU99A	1.19	1.07	1.08	1.08	1.02	0.859	0.706	0.797	0.793	0.883	0.741	0.591	0.594	0.569	0.493	0.198	0.294	0.25	0.343	0.305
LXF-289	1.04	0.906	0.947	0.905	0.936	0.975	0.885	0.91	0.927	0.963	0.238	0.27	0.253	0.208	0.228	0.748	0.604	0.719	0.656	0.564
NCI-H23	0.951	0.948	0.995	0.901	0.904	0.973	0.843	0.881	0.735	0.814	0.682	0.69	0.754	0.884	0.83	0.226		0.2	0.209	0.216
NCI-H322M	0.721	1.03	0.663	0.563	0.512	1.28	0.864	0.586	0.405	0.371	0.246	0.229	0.231	0.233	0.248	0.705	0.566	0.443	0.496	0.405
NCI-H441	0.59	0.642	0.864	0.632	0.313	0.904	0.516	0.446	0.399	0.294	0.574	0.488	0.573	0.435	0.402	0.442	0.431	0.325	0.249	0.222
NCI-H460	1.34	1.1	1.09	1.1	0.997	1.21	1.06	1.14	1.18	1.11	0.531	0.527	0.469	0.467	0.535	0.0369	0.0258	0.0533	0.0327	0.032
NCI-H520	0.712	0.634	0.748	0.579	0.614	1.21	1.15	1.02	1.1	1.11	0.199	0.178	0.19	0.225	0.14	0.21	0.264	0.223	0.215	0.234
NCI-H596	1.15	1.18	1.11	0.766	1.01	1.01	0.94	1.03	0.815	0.934	0.445	0.456	0.643	0.538	0.602	1.01	1	0.894	0.778	0.984
NCI-H647	0.921	0.808	1.08	1.11	1	1.09	0.951	1.16	1.13	1.39	0.24	0.141	0.201	0.192	0.172	0.169	0.26	0.12	0.183	0.158
NCI-H727	0.85	0.732	0.825	0.863	0.804	0.371	0.349	0.407	0.345	0.353	0.366		0.204	0.282	0.249	0.404		0.416	0.282	0.345
NCI-H838	0.869	0.958	1.01	0.667	1.05	1.12	1.14	1.27	1.2	1.16	0.33	0.319	0.331	0.203	0.269	0.346	0.291	0.272	0.217	0.248
NCI-H1355	1.26	1.16	1.29	1.03	1.02	0.807	1.02	0.823	0.764	0.792	0.665	0.742	0.68	0.642	0.643	0.703	0.685	0.642	0.647	0.582
NCI-H1437	0.941	0.52	0.446	0.496	0.554	1.1	1.1	1.17	1.1	1.1	0.464	0.408	0.403	0.372	0.352	1.2	1.14	1.23	1.07	1.12
NCI-H1650	0.222		0.204	0.241	0.207	0.979		1.25	0.962	1.22	0.295		0.307	0.264	0.28	0.181		0.188	0.164	0.224
NCI-H1651	1.08	0.912	0.926	1.02	0.884	1.18	0.989	1.08	0.949	0.941	0.483	0.426	0.407	0.386	0.381	0.923	0.817	1.03	0.835	0.726
